{"source": "patent US5236936A", "about": "“Pyridine compounds which are useful as angiotensin II receptor antagonists” (Imperial Chemical Industries PLC, priority 1991, dated 1993)", "key": {"[1]": {"molecular_target": "T1, AII receptors (guinea pig adrenal gland cell surface membrane fraction) (Cavia porcellus, UniProt Q9WV26)", "T1 construct": "from tissue; host or cells: guinea pig adrenal gland, cell surface membrane fraction", "T1 sequence (Q9WV26 1-359)": "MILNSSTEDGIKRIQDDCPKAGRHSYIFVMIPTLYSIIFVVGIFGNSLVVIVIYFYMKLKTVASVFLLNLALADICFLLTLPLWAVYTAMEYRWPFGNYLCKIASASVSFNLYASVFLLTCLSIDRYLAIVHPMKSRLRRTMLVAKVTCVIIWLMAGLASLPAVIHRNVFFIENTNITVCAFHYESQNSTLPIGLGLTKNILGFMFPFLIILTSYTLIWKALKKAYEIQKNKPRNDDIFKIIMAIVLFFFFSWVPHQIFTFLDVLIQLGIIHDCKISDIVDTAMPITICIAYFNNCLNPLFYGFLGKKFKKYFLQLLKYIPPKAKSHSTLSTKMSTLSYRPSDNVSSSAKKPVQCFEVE", "assay": "Test A: displacement of radiolabelled AII binding to guinea pig adrenal gland cell surface membranes", "conditions": "read-out: IC50 (concentration for 50% displacement of radiolabelled AII binding)", "experimental": "Test A: This in vitro procedure involves the incubation of the test compound initially at a concentration of 100 micromolar (or less) in a buffered mixture containing fixed concentrations of radiolabelled AII and a cell surface membrane fraction prepared from a suitable angiotensin target tissue. In this test, the source of cell surface membranes is the guinea pig adrenal gland which is well known to respond to AII. Interaction of the radiolabelled AII with its receptors (assessed as radiolabel bound to the particulate membrane fraction following removal of unbound radiolabel by a rapid filtration procedure such as is standard in such studies) is antagonized by compounds which also bind to the membrane receptor sites and the degree of antagonism (observed in the test as displacement of membrane-bound radioactivity) is determined readily by comparing the receptor-bound radioactivity in the presence of the test compound at the specified test concentration with a control value determined in the absence of the test compound. Using this procedure compounds showing at least 50% displacement of radiolabelled AII binding at a concentration of 10^-4 M are retested at lower concentrations to determine their potency. […]"}, "[2]": {"system": "angiotensin II-induced pressor responses", "assay": "Test C: antagonism of angiotensin II-induced pressor responses in terminally-anaesthetised or conscious rats", "assay_type": "in vivo", "conditions": "iv, rat, i.v. administration", "experimental": "Test C: This in vivo test involves using terminally-anaesthetised or conscious rats in which an arterial catheter has been implanted under anaesthesia for the measurement of changes in blood pressure. The AII antagonistic effects of the test compound following oral or parenteral administration, are assessed against angiotensin II-induced pressor responses. To ensure that the effect is specific, the effect of the test compound on vasopressin-induced pressor responses may also be determined in the same preparation."}}}
{"smiles": "CCc1cc(OCc2ccc(-c3ccccc3-c3nnn[nH]3)cc2)c(-c2ccncc2)c(C)n1.Cl.Cl", "note": "[Example 3, 6-ethyl-2-methyl-3-(4-pyridyl)-4-[(2'-(1H-tetrazol-5-yl)biphenyl-4-yl)methoxy]pyridine dihydrochloride]", "values": [{"measurement": "IC50", "setting": "[1]", "value": 5.5, "unit": "nM"}, {"measurement": "ED50", "setting": "[2]", "value": 0.18, "unit": "mg/kg"}]}
